Common to all, as to experiment: NCI tumour cell line growth inhibition, 48 h
For experiment [1], the system named is UO-31 renal.
Experiment [2] deals with HOP-62 NSCLC.
The subject of experiment [3] is HT29 colon.
Experiment [4] deals with KM12 colon.
Experiment [5] relates to UACC-62 melanoma.
The test system of experiment [6] is TK-10 renal.
Experiment [7] relates to IGROV1 ovarian.
In experiment [8] the test system is NCI-H226 lung.
Experiment [9] concerns SR leukemia.

SMILES strings stand for the structures.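 Results reflect a 48-hour exposure of cells in 96-well plates to compound at five concentrations. The concentration for 50% growth inhibition is given as GI50. TGI is the concentration that stops growth completely.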

Take `CC(C)CCC[C@@H](C)C1CCC2[C@@H]3CC=C4C[C@@H](C(=O)NCCN(C)C)CC[C@]4(C)C3CC[C@@]21C` (stereo partly drawn): the TGI in [1] was 55.1 µM; in experiment [2] it was 61.2 µM; in experiment [3], above 100 µM; in experiment [4], 28.2 µM; in [5], above 100 µM; in [6], 69.8 µM. Further, the values for the TGI in [7] and in experiment [8] were above 100 µM and 51.4 µM, respectively.

For the compound `O=[N+]([O-])c1cccc(C2=NOC(C3CCCCC3)C2)c1` (stereo not drawn), the TGI in experiment [1], in experiment [2], in experiment [3], in experiment [4], in [5] and in experiment [6] was above 100 µM each time. In addition, the TGI in [7] and in experiment [8] was above 100 µM in each case.

Turning to `COc1cc(/C=C2\[C@H]3c4c(c(OC)c(C)c(OC)c4OC)CC(C(=O)N2Cc2ccccc2)N3C)c(OC)c(C)c1OC`, the TGI is 41.8 µM in experiment [1]; 74.4 µM in [9]; 35.1 µM in experiment [2]; 41.1 µM in experiment [3]; above 100 µM in experiment [4]; 30.4 µM in experiment [5]. Further, the figures for the TGI in experiment [6], in experiment [7] and in [8] were 79.2 µM, 51.6 µM and 24 µM, respectively.

Regarding `Cc1[nH]c2ccccc2c1C1Cc2ccccc2N1C(=O)C#Cc1ccc([N+](=O)[O-])cc1` (stereo not drawn), the TGI in experiment [1], in experiment [9], in [2], in experiment [3], in experiment [4] and in experiment [5] was above 100 µM throughout. The TGI in experiment [6], in experiment [7] and in [8] was above 100 µM in each case.

For the compound `c1coc(-c2c3ccc(=[N+]4CCCCC4)cc-3oc3cc(N4CCCCC4)ccc23)c1`, the GI50 in [1] was 0.0353 µM; in experiment [2] it was 0.0905 µM; in [5], 0.102 µM; in [6], 0.036 µM; in experiment [8] it was 0.138 µM. Also, the TGI in [1] was found to be 0.336 µM; in experiment [2], 0.435 µM; in experiment [5] it was 1.09 µM; in [6], 0.382 µM; in [8], 1.87 µM.

In the case of `Cc1cccc(C2=C/C(=C(\SS/C(C(=O)c3ccc(OCC(=O)O)c(Cl)c3Cl)=C3\C=C(c4cccc(C)c4)SS3)C(=O)c3ccc(OCC(=O)O)c(Cl)c3Cl)SS2)c1`, the TGI in [1] was 32.2 µM; in experiment [2] it was above 100 µM; in [3] it was above 75 µM; in experiment [4], 52.9 µM; in [5] it was 38.5 µM; in [6], above 88.2 µM. Moreover, the TGI in [7] was 44.8 µM; in [8], 35.6 µM.

As for `O=C(N/C(=C\c1ccc([N+](=O)[O-])cc1)c1nc2ccccc2[nH]1)c1ccccc1`, the TGI in experiment [1], in experiment [2], in experiment [3], in [4], in experiment [5] and in experiment [6] was above 100 µM each time. The compound further came in with a TGI in experiment [7] above 100 µM.

Take `Cc1ccc(C)c(N2C/C(=N\NC(=O)CC#N)C(c3nc4ccccc4s3)C(=O)C2=O)c1` (stereo not drawn): the TGI in [1], in [9], in experiment [2], in [3], in [4] and in experiment [5] was above 100 µM each time. Moreover, the TGI in experiment [6], in experiment [7] and in [8] was above 100 µM throughout.

For `O=c1[nH]cnc(NC2C=C(CO)C(O)C2O)c1[N+](=O)[O-]` (stereo not drawn), the TGI in experiment [1], in [9], in [2], in experiment [3], in experiment [4] and in experiment [5] was above 100 µM each time. The TGI in experiment [6], in [7] and in [8] was above 100 µM throughout.

`CC(=O)N1CCN(c2ccc(OCC3COC(Cn4ccnc4)(c4ccc(Cl)cc4Cl)O3)cc2)CC1` (stereo not drawn): the TGI is 91.9 µM in [1]; 66.5 µM in experiment [9]; above 100 µM in experiment [2]; 43.9 µM in experiment [3]; above 100 µM in [4]; 38 µM in experiment [5]. In addition, the figures for the TGI in experiment [6], in experiment [7] and in [8] were 99.9 µM, above 100 µM and 73.6 µM, respectively.

Take `CC1=C(C#N)C(=O)CC(c2ccc(Cl)cc2)N(C)N1` (stereo not drawn): the TGI in [9], in experiment [2], in experiment [3], in experiment [4], in experiment [6] and in experiment [8] was above 100 µM each time.

`CCOC(=O)NC(=O)c1cn(C2CCCCC2)c(=O)[nH]c1=O`: the TGI in [1], in [2], in experiment [3], in experiment [4], in experiment [5] and in [6] was above 100 µM in each case. For the same compound, the TGI in experiment [7] and in experiment [8] was above 100 µM throughout.

For `Nc1nc(-c2ccc(Cl)c([N+](=O)[O-])c2)cs1`, the TGI in experiment [1], in experiment [2], in [3], in experiment [4], in experiment [5] and in [6] was above 100 µM throughout. The TGI in experiment [7] was above 100 µM.

Regarding `CCOP(=O)(OCC)C(C(=O)OC)C(=O)C(=O)Nc1ccc(Cl)cc1Cl` (stereo not drawn), the TGI in experiment [1], in [2], in [3], in [4], in experiment [5] and in experiment [6] was above 100 µM each time. Moreover, the TGI in experiment [7] and in experiment [8] was above 100 µM each time.

Take `O=C(CC(=O)C1CCOC1=O)C(=O)Nc1cccc(Cl)c1` (stereo not drawn): the TGI in experiment [1], in experiment [2], in experiment [3], in experiment [4], in experiment [5] and in experiment [6] was above 100 µM throughout. The TGI in experiment [7] and in experiment [8] was above 100 µM throughout.

Values taken from PubChem BioAssay (NCI).
